Reference: patent publication US20080262228A1, “Metabolites of 5-fluoro-8- quinoline and methods of preparation and uses thereof” (Wyeth, priority 2006, published 2008)
Counter-ions that a name gives are not always drawn.

What was measured:
[1] = Metabolite profiling in liver microsomes and S9; format: in vitro ADME, rat, dog, monkey, human; conditions: liver microsomes and S9, 10 μM COMPOUND I, 30 min; species letters not defined
Procedure: Microsomal incubations for metabolite profiling were similar to those described above for intrinsic clearance determination (see Table 1). Aliquots of COMPOUND I (10 μL), dissolved in DMSO:methanol (1:9), were added to a 96-well plate containing phosphate buffer, and MgCl2 and the liver microsomes at 37° C. using the same automation apparatus as for the stability study described hereinabove. The reactions were initiated by the addition of the UDPGA and NADPH generating system. The final incubation volume for all samples was 1 mL and the length of incubation was 30 min. […] Three 250 μL aliquots were transferred to a 96-well plate containing 900 μL acetonitrile to precipitate the protein. […] The samples were then reconstituted in 150 μL of 20% methanol in water. The three aliquots for each sample were pooled and analyzed by LC/MS.
S9 incubation buffer and cofactors were chosen to allow N-acetylation and carbamoyl glucuronidation in addition to oxidative and glucuronidation pathways possible in liver microsomes. Incubations of sulfamethazine and SCA-136 with liver S9 were used as positive controls for N-acetylation and carbamoyl glucuronidation, respectively. Following a 30 min. incubation, 750 μL from each sample were added to 900 μL acetonitrile. Following centrifugation and evaporation of the supernatant, the samples were reconstituted in 450 μL of 20% methanol in water for analysis by HPLC/UV and LC/MS (see below).
The HPLC system used for mass spectrometric analysis was an Agilent 1100 HPLC (Agilent Technologies, Palo Alto, Calif.) equipped with a binary pump and a diode array UV detector. The UV detector was set to monitor 190-400 nm. Separations were accomplished on a Luna C18 column (150×2.1 mm, 5 μm) (Phenomenex Incorporated, Torrance, Calif.).
The mass spectrometer used for metabolite characterization was a Finnigan LCQ Deca ion trap mass spectrometer (Thermo Electron Corp.). […] Full scan and data dependent MS2 and MS3 mass spectra were recorded. Finnigan Xcalibur software (version 1.3) was used for control of equipment and recording of data from UV and LC/MS analyses.
Chromatographic profiles of COMPOUND I (10 μM) metabolites in incubations with liver microsomes in the presence of NADPH are presented in FIG. 1. Chromatographic profiles of COMPOUND I (10 μM) metabolites in incubations with liver microsomes in the presence of NADPH and UDPGA are presented in FIG. 2. Chromatographic profiles of COMPOUND I (10 μM) metabolites in incubations with liver S9 in the presence of NADPH, UDPGA and acetyl coenzyme A (CoA) are presented in FIG. 3. In incubations containing NADPH, UDPGA and acetyl CoA, fourteen Phase I metabolites (M1, M6, M8, M12, M13, M14, M15, M16, M17, M18, M20, M21, M22 and M23) and six Phase II metabolites (M2, M3, M5, M7, M9 and M10) were observed. In incubations without cofactors, no metabolites were observed.
LC/MS analysis was conducted on extracts of mouse, rat, monkey and human liver microsomes and S9. The mass spectral data for the characterized COMPOUND I metabolites are discussed below.

[2] = Metabolite characterization in cryopreserved hepatocytes; conditions: hepatocyte incubations, 20 μM; R, rat; D, dog; H, human; Media = decomposition product observed in media control
Procedure: Pooled male rat, dog, and mixed male and female human cryopreserved hepatocytes were used in this study. The cryopreserved hepatocytes (two vials from each species; three to five million viable cells per vial) were thawed in a 37° C. water bath with gentle shaking until the ice was almost melted. The suspensions from the two individual vials of the same species were immediately transferred to a 50 mL centrifuge tube containing pre-warmed thawing media at 37° C. with gentle handshaking to prevent the cells from settling. The cell suspension was centrifuged at 50 g for 5 min at 4° C. Supernatants were discarded and the pellets were resuspended in pre-warmed incubation media (8 mL) at 37° C. […] [^14C]COMPOUND I (20 μM) was incubated in a 12-well plate containing hepatocyte suspensions at 1.0 mL per well in duplicate (≧1 million viable cells/well) at 37° C. for 1 or 4 hr in the presence of 5% CO2:95% O2. Control incubations without hepatocytes were also run under the same conditions. Positive controls containing [^14C]7-ethoxycoumarin (100 μM) were also incubated under the same conditions, but only for 1 hr. At the end of the incubations, reactions were stopped by adding acetonitrile with 2% acetic acid (1 mL), mixed for 10 min, followed by centrifugation at 4000 rpm for 10 min at 4° C. Aliquots (50 μL) of supernatants were analyzed by HPLC with UV and radioactivity flow detection for metabolite profiling, and by LC/MS for metabolite identification as described in below. To determine extraction recovery, aliquots (20 μL) of supernatants were analyzed for radioactivity content utilizing a Packard Tri-Carb Model 3100 TR liquid scintillation counter and 5 mL of Ultima Gold.
The HPLC system used for mass spectrometric analysis was a Waters Alliance model 2695 HPLC system (Waters Corp). It was equipped with a built-in autosampler and a model 996 diode array UV detector. The UV detector was set to monitor 210-400 nm. The HPLC conditions were the same as those described hereinabove with the following exceptions. […]

[3] = biological target: T1, human 5-HT1A receptor (Homo sapiens, UniProt P08908); assay: Forskolin-induced adenylate cyclase (cAMP) functional assay in h5-HT1A.CHO cells; format: cell-based
T1 construct: expressed in transfected cells
T1 sequence (P08908 1-422): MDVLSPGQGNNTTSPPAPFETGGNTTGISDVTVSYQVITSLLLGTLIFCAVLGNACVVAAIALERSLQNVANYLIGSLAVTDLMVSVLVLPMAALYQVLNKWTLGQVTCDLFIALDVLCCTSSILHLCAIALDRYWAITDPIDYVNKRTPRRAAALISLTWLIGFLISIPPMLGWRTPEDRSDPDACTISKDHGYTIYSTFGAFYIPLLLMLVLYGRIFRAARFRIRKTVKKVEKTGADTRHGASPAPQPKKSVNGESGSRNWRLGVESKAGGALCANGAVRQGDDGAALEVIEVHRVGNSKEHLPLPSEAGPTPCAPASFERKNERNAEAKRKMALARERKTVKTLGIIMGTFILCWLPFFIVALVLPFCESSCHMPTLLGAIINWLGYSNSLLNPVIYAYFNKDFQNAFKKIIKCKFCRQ
Procedure: A Ki value is reported. The in vitro functional activity of the compounds of this invention is determined by measuring the effect of the compound on forskolin-induced adenylate cyclase activity in the same cell line. 5-HT1A agonists, such as the full agonist 8-OH-DPAT, inhibit forskolin-induced adenylate cyclase activity, as measured by a reduction in cAMP levels. The compounds of this invention display agonist activity as shown by its ability to induce a decrease in cAMP levels. An EC50 value is reported and the maximum response of the test compound is reported as the percent of a full agonist response (the maximum response obtained with the full agonist 8-OH-DPAT=100%). This percent is expressed as an Emax value.
The PCR cloning of the human 5-HT1A receptor subtype from a human genomic library has been described previously (Chanda et al., Mol. Pharmacol., 43:516 (1993)). A stable Chinese hamster ovary cell line expressing the human 5-HT1A receptor subtype (h5-HT1A.CHO cells) was employed throughout this study. […]
Measurements can be performed as described in Dunlop, J. et al., supra. […] Functional activity is assessed by treating the cells with forskolin (1 uM final concentration) followed immediately by test compound (6 different concentrations) for an additional 10 min. at 37° C. […]

| SMILES | Species (in which the metabolite was characterized) [1] | Source [2] | EC50 ([3]; decrease of forskolin-induced cAMP, read-out: EC50 value for in vitro agonist activity) | Emax ([3]; percent of full agonist response (8-OH-DPAT=100%)) |
| --- | --- | --- | --- | --- |
| COc1cc(N2CCN(C3CCN(c4ccc(F)c5cccnc45)CC3)CC2)c2ncccc2c1 [COMPOUND I, 5-Fluoro-8-{4-[4-(6-methoxyquinolin-8-yl)piperazin-1-yl]piperidin-1-yl}quinoline] | R, D, M, H | All | – | – |
| Oc1cc(N2CCN(C3CCN(c4ccc(F)c5cccnc45)CC3)CC2)c2ncccc2c1 [Metabolite M21, 8-{4-[1-(5-fluoroquinolin-8-yl)piperidin-4-yl]piperazin-1-yl}quinolin-6-ol trihydrochloride] | R, D, M, H | R (trace), D, H | 390 pM | 92% |
